From US20060205071A1, “Methods for ex-vivo expanding stem/progenitor cells” (priority 2003, published 2006)
“Also recorded” adds a separate entry of the source.

Experiments:
[1] = system: Hematopoietic stem/progenitor cells isolated from umbilical cord blood; experiment: Ex vivo expansion of HSC with copper chelator in a gas permeable culture bag (static bioreactor); assay type: cell-based, human
Procedure: Hematopoietic stem/progenitor cells isolated from umbilical cord blood (UCB) mononuclear cells by magnetic activated cell sorting (MACS technology, Milteny, Bergisch-Gladbach, GmbH) were seeded in static bioreactors (gas permeable culture bags) at concentrations of 1×10^4 cells/ml in MEM-alpha with 10% Fetal Calf Serum (FCS) containing 50 ng/ml of the following cytokines: SCF, TPO, Flt-3, IL-6, with (TEPA) or without (control) added copper chelator tetraethylenepentamine (TEPA, Aldrich, Milwaukee Wis., USA) (5 μM), and incubated for at least three weeks in a 5% CO2 humidified incubator. […] Cell Cultures of Human Hematopoietic Stem/Progenitor Cells: Human umbilical cord blood cells were obtained from umbilical cord blood after normal full-term delivery (informed consent was given). MPB, or BM were obtained from donations (informed consent was given). Samples were either used fresh or collected and frozen according to well known cord blood cryopreservation protocol (Rubinstein et al. 1995) within 24 h postpartum for UCB or according to common practice regarding MPB and BM. Prior to cryopreservation, blood was sedimented for 30 minutes on […] Starch (hydroxyethyl starch) to remove most RBC. Prior to their use, the cells were thawed in Dextran buffer (Sigma, St. Louis, Mo., USA) containing 2.5% human serum albumin (HSA) (Bayer Corp. Elkhart, Ind., USA) and processed as described herein below. Following thawing, where indicated, the leukocyte-rich fraction was harvested and layered on Ficoll-Hypaque gradient (1.077 g/mL; Sigma Inc, St Louis Mo., USA), and centrifuged at 400X g for 30 minutes. The mononuclear cell fraction in the interface layer was then collected, washed three times, and re-suspended in phosphate-buffered saline (PBS) (Biological Industries, Bet HaEmek, Israel) containing 0.5% human serum albumin (HSA) (Bayer Corp. Elkhart, Ind., USA). The CD133^+ cell fraction was purified as follows: Either the mononuclear cell fraction was subjected to two cycles of immuno-magnetic separation using the “MiniMACS CD133 stem cell isolation kit” (Miltenyi Biotec, Auburn, Calif.) or the unfractionated preparation was isolated on the CliniMACS device using CD133^+ CliniMACS (Miltenyi Biotec, Auburn, Calif.) reagent, accordingly, following the manufacturer's recommendations (in the latter, the Ficoll-Hypaque gradient stage was omitted). The purity of the CD133^+ population thus obtained was 80-95%, as evaluated by flow cytometry. […]

[2] = system: Hematopoietic stem/progenitor cells isolated from umbilical cord blood; experiment: Long Term Culture-Colony Forming Cell (LTC-CFC) assay of bag-cultured HSC; assay type: cell-based, human
Procedure: FIGS. 1A-1C are a graphic representation of the ex-vivo expansion and inhibition of differentiation of stem cells in a static bioreactor. Hematopoietic stem/progenitor cells isolated from umbilical cord blood (UCB) mononuclear cells by magnetic activated cell sorting (MACS technology, Milteny, Bergisch-Gladbach, GmbH) were seeded in static bioreactors (gas permeable culture bags) at concentrations of 1×10^4 cells/ml in MEM-alpha with 10% Fetal Calf Serum (FCS) containing 50 ng/ml of the following cytokines: SCF, TPO, Flt-3, IL-6, with (TEPA) or without (control) added copper chelator tetraethylenepentamine (TEPA, Aldrich, Milwaukee Wis., USA) (5 μM), and incubated for at least three weeks in a 5% CO2 humidified incubator. […] CFUc frequency was calculated as number of CFUc per number of cells.
Self-Renewal Potential Evaluations: The self-renewal potential of stem cells was determined in vitro by long-term colony formation. […] The resulting colonies were scored after two weeks of incubation at 37° C. in a humidified atmosphere of 5% CO2 in air. […]
Calculations: Ex vivo expansion of TNC, CD133, CD133+CD34− cells and CFUc are reported either as cumulative numbers; number of cells per ml multiply by the final culture volume, or as fold-expansion; cumulative numbers divided by initial seeding cell number. CFUc frequency is calculated as number of colonies divided by cell number. […]

[3] = system: cord-blood-derived, bone marrow-derived, and peripheral blood derived stem and progenitor cells; conditions: grown without a feeder layer; cited from earlier work
[4] = static bioreactor (VueLife FEP Teflon bag), compared with cells cultured without TEPA

NCCNCCNCCNCCN [TEPA, tetraethylenepentamine]
fold expansion of immature subpopulations of HSC (CD34+/CD38− and CD34+/lin−) ([1]; 5 μM TEPA, three weeks, static bioreactor (culture bag), vs cytokines without TEPA): dramatically increases; also recorded: predominance of undifferentiated CD34^+/CD38^− and CD34^+/lin^− | fraction of self-renewing, undifferentiated cells ([1]; short and long term culture in a static bioreactor, compared with cytokine-only cultures): dramatically increased | population of ex-vivo cultured stem and/or progenitor cells [1, 4]: greatly expanded | LTC-CFC numbers (colonogenic potential, CFUs) ([2]; 5 μM TEPA vs control cells grown with cytokines but not TEPA): at least one order of magnitude; also recorded: predominance of CFUs | functional characteristics (colonogenic potential) [2, 4]: superior | fraction of CD34+ cell [3]: greatly enhanced | long-term clonability [3]: greatly enhanced
